Experimental data published in patent publication US5773449A, “Thioquinolone compounds which have useful pharmaceutical activity” (Zenyaku Kogyo Kabushiki Kaisha, priority 1994, dated 1998).
≈ marks a conversion by molar mass, not a printed value.

Each compound was assayed on S.aureus FDA 209P (assay: Antibacterial Test 2: agar plate dilution method (aerobic MIC method), S.aureus). Settings: Staphylococcus aureus, FDA209P, sensitive-disk agar medium-N.
Type: cell-based
Experimental: (§1) Then, tested were antibacterial activities of the typical compounds of the present invention against gram-positive and-negative bacteria other than Hp. MICs of the typical compounds of the present invention were determined in substantial accordance with agar plate dilution method (aerobic MIC method) based on Standard method of The Japan Society of Chemotherapy.
(§2) The respective test compound were dissolved in dimethyl sulfoxide (DMSO) and serially diluted twofold. These diluted solutions of the compounds were respectively added to sensitive-disk agar medium-N (manufactured by NISSUI SEIYAKU) to prepare agar plates for determination with concentration of 0.05-100 μg/ml.
(§3) The below-mentioned strains freezingly conserved at -135° C. were thawed in a warm bath (40° C.), cultured in a sensitivity-determining bouillon at 37° C. for 18-20 hours, and then diluted with the above-mentioned medium to prepare about 1.0×10^6CFU/ml of bacterial solution.
(§4) Inoculation was made by 5 μl by multi-inoculator (manufactured by SAKUMA SEISAKUSHO). Culturing was made under the same conditions as those of the pre-culturing and the MIC (unit: μg/ml) was determined by observing whether the bacteria grew or not.

Question: Which MIC does the source give for CC(=O)OCc1ccc2c(=S)cc[nH]c2c1 [compound 29, 7-Acetoxymethylquinoline-4(1H)-thione] here?
Answer: 25 µg/mL (≈ 107 µM)

Question: For CCCCCCCCCCCCc1ccc2c(=S)cc[nH]c2c1 [compound 30, 7-Dodecylquinoline-4(1H)-thione], which MIC is on record?
Answer: > 100 µg/mL

Question: How did the MIC turn out when S=c1cc[nH]c2cc(CCc3ccccc3)ccc12 [compound 31, 7-Phenethylquinoline-4(1H)-thione] was run?
Answer: > 100 µg/mL

Question: Which MIC does the source give for S=c1cc[nH]c2cc(/C=C/c3ccccc3)ccc12 [compound 32, trans-7-Styrylquinoline-4(1H)-thione] here?
Answer: > 100 µg/mL

Question: CC(C)N(C)c1ccc2c(=S)cc[nH]c2c1 [compound 34, 7-(N-Isopropyl-N-methylamino)quinoline-4(1H)-thione] was tested. Which MIC did it give?
Answer: > 100 µg/mL

Question: For S=c1cc[nH]c2cc(N3CCOCC3)ccc12 [compound 36, 7-Morpholinoquinoline-4(1H)-thione], which MIC is on record?
Answer: 100 µg/mL (≈ 406 µM)

Question: How did the MIC turn out when S=c1cc[nH]c2cc(SCc3ccccc3)ccc12 [compound 37, 7-Benzylthioquinoline-4(1H)-thione] was run?
Answer: > 100 µg/mL

Each compound was assayed on K.pneumoniae PCI 602 (assay: Antibacterial Test 2: agar plate dilution method (aerobic MIC method), K.pneumoniae). Settings: Klebsiella pneumoniae, PCI602, sensitive-disk agar medium-N.
Type: cell-based
Experimental: as §1, §2, §3, §4

Question: How did the MIC turn out when CC(=O)OCc1ccc2c(=S)cc[nH]c2c1 [compound 29, 7-Acetoxymethylquinoline-4(1H)-thione] was run?
Answer: > 100 µg/mL

Question: CCCCCCCCCCCCc1ccc2c(=S)cc[nH]c2c1 [compound 30, 7-Dodecylquinoline-4(1H)-thione] was tested. Which MIC did it give?
Answer: > 100 µg/mL

Question: With S=c1cc[nH]c2cc(CCc3ccccc3)ccc12 [compound 31, 7-Phenethylquinoline-4(1H)-thione] as the compound, how does the MIC read?
Answer: > 100 µg/mL

Question: How did the MIC turn out when S=c1cc[nH]c2cc(/C=C/c3ccccc3)ccc12 [compound 32, trans-7-Styrylquinoline-4(1H)-thione] was run?
Answer: > 100 µg/mL

Question: CC(C)N(C)c1ccc2c(=S)cc[nH]c2c1 [compound 34, 7-(N-Isopropyl-N-methylamino)quinoline-4(1H)-thione] was tested. Which MIC did it give?
Answer: > 100 µg/mL

Question: For S=c1cc[nH]c2cc(N3CCOCC3)ccc12 [compound 36, 7-Morpholinoquinoline-4(1H)-thione], which MIC is on record?
Answer: > 100 µg/mL

Question: For S=c1cc[nH]c2cc(SCc3ccccc3)ccc12 [compound 37, 7-Benzylthioquinoline-4(1H)-thione], which MIC is on record?
Answer: > 100 µg/mL

Each compound was assayed on P.aeruginosa IFO 3445 (assay: Antibacterial Test 2: agar plate dilution method (aerobic MIC method), P.aeruginosa). Settings: Pseudomonas aeruginosa, IFO3445, sensitive-disk agar medium-N.
Type: cell-based
Experimental: as §1, §2, §3, §4

Question: Which MIC does the source give for CC(=O)OCc1ccc2c(=S)cc[nH]c2c1 [compound 29, 7-Acetoxymethylquinoline-4(1H)-thione] here?
Answer: > 100 µg/mL

Question: How did the MIC turn out when CCCCCCCCCCCCc1ccc2c(=S)cc[nH]c2c1 [compound 30, 7-Dodecylquinoline-4(1H)-thione] was run?
Answer: > 100 µg/mL

Question: For S=c1cc[nH]c2cc(CCc3ccccc3)ccc12 [compound 31, 7-Phenethylquinoline-4(1H)-thione], which MIC is on record?
Answer: > 100 µg/mL

Question: With S=c1cc[nH]c2cc(/C=C/c3ccccc3)ccc12 [compound 32, trans-7-Styrylquinoline-4(1H)-thione] as the compound, how does the MIC read?
Answer: > 100 µg/mL

Question: How did the MIC turn out when CC(C)N(C)c1ccc2c(=S)cc[nH]c2c1 [compound 34, 7-(N-Isopropyl-N-methylamino)quinoline-4(1H)-thione] was run?
Answer: > 100 µg/mL

Question: With S=c1cc[nH]c2cc(N3CCOCC3)ccc12 [compound 36, 7-Morpholinoquinoline-4(1H)-thione] as the compound, how does the MIC read?
Answer: > 100 µg/mL

Question: S=c1cc[nH]c2cc(SCc3ccccc3)ccc12 [compound 37, 7-Benzylthioquinoline-4(1H)-thione] was tested. Which MIC did it give?
Answer: > 100 µg/mL

Each compound was assayed on E.coli NIHJ JC-2 (assay: Antibacterial Test 2: agar plate dilution method (aerobic MIC method), E.coli). Settings: Escherichia coli, NIHJJC2, sensitive-disk agar medium-N.
Type: cell-based
Experimental: as §1, §2, §3, §4

Question: With CC(=O)OCc1ccc2c(=S)cc[nH]c2c1 [compound 29, 7-Acetoxymethylquinoline-4(1H)-thione] as the compound, how does the MIC read?
Answer: > 100 µg/mL

Question: CCCCCCCCCCCCc1ccc2c(=S)cc[nH]c2c1 [compound 30, 7-Dodecylquinoline-4(1H)-thione] was tested. Which MIC did it give?
Answer: > 100 µg/mL

Question: How did the MIC turn out when S=c1cc[nH]c2cc(CCc3ccccc3)ccc12 [compound 31, 7-Phenethylquinoline-4(1H)-thione] was run?
Answer: > 100 µg/mL

Question: How did the MIC turn out when S=c1cc[nH]c2cc(/C=C/c3ccccc3)ccc12 [compound 32, trans-7-Styrylquinoline-4(1H)-thione] was run?
Answer: > 100 µg/mL

Question: How did the MIC turn out when CC(C)N(C)c1ccc2c(=S)cc[nH]c2c1 [compound 34, 7-(N-Isopropyl-N-methylamino)quinoline-4(1H)-thione] was run?
Answer: > 100 µg/mL

Question: How did the MIC turn out when S=c1cc[nH]c2cc(N3CCOCC3)ccc12 [compound 36, 7-Morpholinoquinoline-4(1H)-thione] was run?
Answer: > 100 µg/mL

Question: With S=c1cc[nH]c2cc(SCc3ccccc3)ccc12 [compound 37, 7-Benzylthioquinoline-4(1H)-thione] as the compound, how does the MIC read?
Answer: > 100 µg/mL

Each compound was assayed on M.luteus ATCC 9341 (assay: Antibacterial Test 2: agar plate dilution method (aerobic MIC method), M.luteus). Settings: Micrococcus luteus, ATCC9341, sensitive-disk agar medium-N.
Type: cell-based
Experimental: as §1, §2, §3, §4

Question: CC(=O)OCc1ccc2c(=S)cc[nH]c2c1 [compound 29, 7-Acetoxymethylquinoline-4(1H)-thione] was tested. Which MIC did it give?
Answer: 50 µg/mL (≈ 214 µM)

Question: For CCCCCCCCCCCCc1ccc2c(=S)cc[nH]c2c1 [compound 30, 7-Dodecylquinoline-4(1H)-thione], which MIC is on record?
Answer: 100 µg/mL (≈ 303 µM)

Question: How did the MIC turn out when S=c1cc[nH]c2cc(CCc3ccccc3)ccc12 [compound 31, 7-Phenethylquinoline-4(1H)-thione] was run?
Answer: > 100 µg/mL

Question: For S=c1cc[nH]c2cc(/C=C/c3ccccc3)ccc12 [compound 32, trans-7-Styrylquinoline-4(1H)-thione], which MIC is on record?
Answer: > 100 µg/mL

Question: For CC(C)N(C)c1ccc2c(=S)cc[nH]c2c1 [compound 34, 7-(N-Isopropyl-N-methylamino)quinoline-4(1H)-thione], which MIC is on record?
Answer: > 100 µg/mL

Question: With S=c1cc[nH]c2cc(N3CCOCC3)ccc12 [compound 36, 7-Morpholinoquinoline-4(1H)-thione] as the compound, how does the MIC read?
Answer: 100 µg/mL (≈ 406 µM)

Question: For S=c1cc[nH]c2cc(SCc3ccccc3)ccc12 [compound 37, 7-Benzylthioquinoline-4(1H)-thione], which MIC is on record?
Answer: > 100 µg/mL

What follows are compounds tested on Helicobacter pylori standard strain ATCC 43526 (NCTC 11916) (assay: Antibacterial test 1: agar plate dilution method (anaerobic MIC method) against Hp). Settings: 72 h; Helicobacter pylori ATCC 43526 (NCTC 11916); brucella agar + 7% horse blood, microaerobic, 37° C., 3 days.
Type: cell-based
Experimental: Antibacterial test against Hp was performed in substantial accordance with agar plate dilution method (anaerobic MIC method) based on Standard method of The Japan Society of Chemotherapy to determine minimum inhibitory concentration (MIC) of the respective test compounds. The respective test compounds were sequentially dissolved in dimethyl sulfoxide (DMSO) and serially diluted twofold. […] Strain used for inoculation was Helicobacter pylori standard strain ATCC 43526 (NCTC 11916). For pre-culturing of bacteria to be inoculated, the above-mentioned strain freezingly conserved at -135° C. was thawed in a warm bath (40° C.), applied on a brucella agar medium containing 7% horse blood free from fibrin, and microaerobically cultured in a jar for anaerobic bacteria at 37° C. for 3 days. The solution of bacteria to be inoculated was prepared by collecting colonies grown on the culture medium and suspending the same in the brucella broth.

Question: CC(=O)OCc1ccc2c(=S)cc[nH]c2c1 [compound 29, 7-Acetoxymethylquinoline-4(1H)-thione] was tested. Which MIC did it give?
Answer: 0.78 µg/mL

Question: For CCCCCCCCCCCCc1ccc2c(=S)cc[nH]c2c1 [compound 30, 7-Dodecylquinoline-4(1H)-thione], which MIC is on record?
Answer: 1.56 µg/mL

Question: Which MIC does the source give for S=c1cc[nH]c2cc(CCc3ccccc3)ccc12 [compound 31, 7-Phenethylquinoline-4(1H)-thione] here?
Answer: 0.39 µg/mL

Question: For S=c1cc[nH]c2cc(/C=C/c3ccccc3)ccc12 [compound 32, trans-7-Styrylquinoline-4(1H)-thione], which MIC is on record?
Answer: 0.78 µg/mL

Question: For CC(C)N(C)c1ccc2c(=S)cc[nH]c2c1 [compound 34, 7-(N-Isopropyl-N-methylamino)quinoline-4(1H)-thione], which MIC is on record?
Answer: 0.78 µg/mL

Question: How did the MIC turn out when S=c1cc[nH]c2cc(N3CCOCC3)ccc12 [compound 36, 7-Morpholinoquinoline-4(1H)-thione] was run?
Answer: 0.39 µg/mL

Question: With S=c1cc[nH]c2cc(SCc3ccccc3)ccc12 [compound 37, 7-Benzylthioquinoline-4(1H)-thione] as the compound, how does the MIC read?
Answer: 0.78 µg/mL

What follows are compounds tested on E.faecalis RIMD 3336001 (assay: Antibacterial Test 2: agar plate dilution method (aerobic MIC method), E.faecalis). Settings: Enterococcus faecalis, RIMD3336001, sensitive-disk agar medium-N.
Type: cell-based
Experimental: as §1, §2, §3, §4

Question: Which MIC does the source give for CC(=O)OCc1ccc2c(=S)cc[nH]c2c1 [compound 29, 7-Acetoxymethylquinoline-4(1H)-thione] here?
Answer: 50 µg/mL (≈ 214 µM)

Question: Which MIC does the source give for CCCCCCCCCCCCc1ccc2c(=S)cc[nH]c2c1 [compound 30, 7-Dodecylquinoline-4(1H)-thione] here?
Answer: > 100 µg/mL

Question: With S=c1cc[nH]c2cc(CCc3ccccc3)ccc12 [compound 31, 7-Phenethylquinoline-4(1H)-thione] as the compound, how does the MIC read?
Answer: > 100 µg/mL

Question: With S=c1cc[nH]c2cc(/C=C/c3ccccc3)ccc12 [compound 32, trans-7-Styrylquinoline-4(1H)-thione] as the compound, how does the MIC read?
Answer: > 100 µg/mL

Question: With CC(C)N(C)c1ccc2c(=S)cc[nH]c2c1 [compound 34, 7-(N-Isopropyl-N-methylamino)quinoline-4(1H)-thione] as the compound, how does the MIC read?
Answer: > 100 µg/mL

Question: For S=c1cc[nH]c2cc(N3CCOCC3)ccc12 [compound 36, 7-Morpholinoquinoline-4(1H)-thione], which MIC is on record?
Answer: > 100 µg/mL

Question: S=c1cc[nH]c2cc(SCc3ccccc3)ccc12 [compound 37, 7-Benzylthioquinoline-4(1H)-thione] was tested. Which MIC did it give?
Answer: > 100 µg/mL

Each compound was assayed on B.subtilis PCI 219 (assay: Antibacterial Test 2: agar plate dilution method (aerobic MIC method), B.subtilis). Settings: Bacillus subtilis, PCI219, sensitive-disk agar medium-N.
Type: cell-based
Experimental: as §1, §2, §3, §4

Question: For CC(=O)OCc1ccc2c(=S)cc[nH]c2c1 [compound 29, 7-Acetoxymethylquinoline-4(1H)-thione], which MIC is on record?
Answer: 100 µg/mL (≈ 429 µM)

Question: CCCCCCCCCCCCc1ccc2c(=S)cc[nH]c2c1 [compound 30, 7-Dodecylquinoline-4(1H)-thione] was tested. Which MIC did it give?
Answer: > 100 µg/mL

Question: Which MIC does the source give for S=c1cc[nH]c2cc(CCc3ccccc3)ccc12 [compound 31, 7-Phenethylquinoline-4(1H)-thione] here?
Answer: > 100 µg/mL

Question: For S=c1cc[nH]c2cc(/C=C/c3ccccc3)ccc12 [compound 32, trans-7-Styrylquinoline-4(1H)-thione], which MIC is on record?
Answer: > 100 µg/mL

Question: CC(C)N(C)c1ccc2c(=S)cc[nH]c2c1 [compound 34, 7-(N-Isopropyl-N-methylamino)quinoline-4(1H)-thione] was tested. Which MIC did it give?
Answer: > 100 µg/mL

Question: With S=c1cc[nH]c2cc(N3CCOCC3)ccc12 [compound 36, 7-Morpholinoquinoline-4(1H)-thione] as the compound, how does the MIC read?
Answer: 100 µg/mL (≈ 406 µM)

Question: How did the MIC turn out when S=c1cc[nH]c2cc(SCc3ccccc3)ccc12 [compound 37, 7-Benzylthioquinoline-4(1H)-thione] was run?
Answer: > 100 µg/mL
